How the values were obtained:
Type in all cases: in vivo, human
[1] = Phase I/IIA study: pharmacokinetics after oral administration
Source text: This […] study is an ongoing first-in-human, open-label study investigating the safety, tolerability, pharmacokinetics (PK), pharmacodynamics (PD) and preliminary efficacy of the pan-NOTCH inhibitor 6-(4-Tert-Butylphenoxy)Pyridin-3-Amine in adult patients with locally advanced or metastatic solid tumours or hematologic malignancies.
The study is designed as an open label, non-randomised, uncontrolled […] dose escalation study with expansion cohorts of 6-(4-Tert-Butylphenoxy)Pyridin-3-Amine administered orally on a once-daily schedule, based on a 28-day treatment cycle. The dosing will be 15, 30, 60, 120, 170, 250, 400, or 600 mg of the 6-(4-Tert-Butylphenoxy)Pyridin-3-Amine monohydrochloride salt or higher per day or alternatively 20, 40, 60, 120, 170, 250, 400, or 600 mg of the 6-(4-Tert-Butylphenoxy)Pyridin-3-Amine monohydrochloride salt or higher per day. Dosing of 15, 30, 60, 120, 170, 250, 400, or 600 mg of the 6-(4-Tert-Butylphenoxy)Pyridin-3-Amine monohydrochloride salt corresponds to dosing of 13, 26, 52, 104, 148, 217, 348, or 522 mg of 6-(4-Tert-Butylphenoxy)Pyridin-3-Amine (free base). Dosing of 20, 40, 60, 120, 170, 250, 400, or 600 mg of the 6-(4-Tert-Butylphenoxy)Pyridin-3-Amine monohydrochloride salt corresponds to dosing of 17, 35, 52, 104, 148, 217, 348, or 522 mg of 6-(4-Tert-Butylphenoxy)Pyridin-3-Amine (free base). For this study, 6-(4-Tert-Butylphenoxy)Pyridin-3-Amine monohydrochloride salt was formulated into a capsule having a drug load of 5, 10, 20, 50 and 100 mg, respectively intended to be administered orally. • Patients will meet the following criteria:
6-(4-Tert-Butylphenoxy)Pyridin-3-Amine is rapidly absorbed after oral administration and reaches Cmax within 1 to 2 hours of dosing. […] The elimination half-life is approximately 20 hours and 6-(4-Tert-Butylphenoxy)Pyridin-3-Amine accumulates about 2-fold with repeated daily administration.

[2] = tested on: Notch-activated relapsed and treatment refractory T-ALL; experiment: Compassionate use in a NOTCH positive relapsed refractory T-ALL patient: clinical response; conditions: free base once daily 300 to 400 to 500 mg
Method: In a compassionate use program, a patient with Notch-activated relapsed and treatment refractory T-ALL was treated with 6-(4-Tert-Butylphenoxy)Pyridin-3-Amine (free base) once daily starting with 300 mg, increased to 400 mg, then 500 mg in addition to their ongoing anti-cancer treatment. Dose escalation was done every 3 days to reach the target dose 500 mg.

[3] = tested on: DTX-1 (Deltex E3 Ubiquitin Ligase 1); experiment: Compassionate use T-ALL patient: DTX-1 gene expression by RTqPCR; conditions: at C2D15; time-dependent; target dose 500 mg once daily
Method: DTX-1 is a positive regulator of NOTCH signalling pathway (C1D01_pre: Cycle 1 Day 1 predose; C1D01_1 h: Cycle 1 Day 1 1 hour post dose; C1D21_1 h: Cycle 1 Day 21 1 hour post dose; C2D15_1 h: Cycle 2 Day 15 1 hour post dose).
Administration of 6-(4-Tert-Butylphenoxy)Pyridin-3-Amine induced a potent time-dependent downregulation of DTX-1 (Deltex E3 Ubiquitin Ligase 1) up to 95% at C2D15, indicative of NOTCH pathway downregulation. DTX-1 is a positive regulator of NOTCH signalling pathway
Blood samples for PBMCs and cytokine analysis were collected using BD Vacutainer® Evacuated Blood Collection Tubes, and immediately centrifuged to separate the cell and plasma compartments for further analysis. Gene expression profiling was performed by standard RTqPCR. Cytokine analysis in the plasma compartment was performed with a standard commercially available ELISA method.

[4] = tested on: adenoid cystic carcinoma (ACC); experiment: Phase I/IIA study: preliminary clinical efficacy (best response, disease control rate); conditions: for Disease control rate (CR, PR or SD / patients treated): 19 ACC patients
Source text: Each lane represents one patient and the length of the lane represents the duration of treatment. […] Disease control rate of 19 patients with adenoid cystic carcinoma at 8 weeks and 20 weeks was 79% and 58%, respectively (calculated as number of patients with complete or partial response, or stable disease divided by the number of patients with that indication treated). Abbreviations: SD, stable disease; PD, progressive disease; NA, not applicable).
The primary outcome measures for this study are: • Part A (Escalation): Dose limiting toxicities (DLT) • Part B (Expansion): Best overall response according to the respective tumour assessment criteria for the different cancer indications.
The Notch status of the other patients is under investigation. Disease control rate (DCR) of 19 ACC patients at 8 weeks and 20 weeks was 79% and 58%, respectively (DCR defined as number of patients with CR, PR, or SD divided by the number of patients treated).

CC(C)(C)c1ccc(Oc2ccc(N)cn2)cc1 [6-(4-Tert-Butylphenoxy)Pyridin-3-Amine]
time to steady state concentrations ([1]; daily dosing): within one week | Tmax ([1]; human, plasma, after oral administration, read-out: time to reach Cmax): 1 to 2 h | half-life ([1]; human, plasma, oral, read-out: elimination half-life (converted)): ~20 h | accumulation with repeated daily administration ([1]; oral, daily): about 2 fold | plasma exposure versus dose ([1]; oral, dose range tested): increases with increasing doses | saturation of absorption ([1]; oral, dose range tested): no signs of saturated absorption | time to complete remission after starting dosing [2]: ≤ 1 week | clinical response ([2]; added to ongoing anti-cancer treatment): complete remission | downregulation of DTX-1 [3]: up to 95% | number of ACC patients with radiologically confirmed stable disease ([4]; 4 of them with Notch activating mutation): Ten | Disease control rate (CR, PR or SD / patients treated) ([4]; at 8 weeks): 79% | Disease control rate (CR, PR or SD / patients treated) ([4]; at 20 weeks): 58% | best response ([4]; at doses showing target engagement): durable stable disease

Source: US20230338347A1, “New Use of Inhibitors of the Notch Signalling Pathway” (Cellestia Biotech AG, priority 2020, published 2023)
